The target in experiment [1] is Mothers against decapentaplegic homolog 3 (Homo sapiens, UniProt P84022). In words: SMAD3 transcription factor inhibitors, dose response (AID 715). It counts as functional.
Experiment [2] concerns HeLa. Put plainly: Cytotoxicity counterscreen assay for transcriptional activators of heat shock protein 70 (Hsp70). [Related pubchem assays: 1203, 1252 ]. It counts as functional. The note with it: Homo sapiens.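 Further: cells exposed to compound for 16 hours before readout.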
The target of experiment [3] is Oxytocin receptor (Homo sapiens, UniProt P30559). Put plainly: Counterscreen for vasopressin 1 receptor (V1R) agonists: Fluorescence-based cell-based high throughput dose response assay for agonists of the Oxytocin Receptor (OXTR). [Related pubchem assays: 2435 (Primary screen (OXTR agonists in singlicate)), 434964 (Confirmation screen (V1R agonists in triplicate)), 434969 (Counterscreen (OXTR agonists in …. The experiment is classed as functional.
Chain of Oxytocin receptor (P30559 whole entry): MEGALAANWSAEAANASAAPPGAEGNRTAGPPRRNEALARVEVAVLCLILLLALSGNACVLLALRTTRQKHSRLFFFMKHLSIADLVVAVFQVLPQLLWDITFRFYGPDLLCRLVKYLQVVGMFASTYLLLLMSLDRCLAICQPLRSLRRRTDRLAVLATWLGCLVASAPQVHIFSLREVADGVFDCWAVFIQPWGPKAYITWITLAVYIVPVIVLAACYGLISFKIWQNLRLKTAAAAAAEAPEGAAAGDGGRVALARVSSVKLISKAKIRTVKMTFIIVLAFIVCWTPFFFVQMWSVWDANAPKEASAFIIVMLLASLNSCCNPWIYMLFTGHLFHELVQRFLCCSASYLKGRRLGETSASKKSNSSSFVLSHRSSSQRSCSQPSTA

Experiment [4] deals with Vasopressin V1a receptor (Homo sapiens, UniProt P37288). In words: Fluorescence-based cell-based high throughput dose response screening assay for agonists of the vasopressin 1 receptor (V1R). It counts as functional.
Chain of Vasopressin V1a receptor (P37288 whole entry): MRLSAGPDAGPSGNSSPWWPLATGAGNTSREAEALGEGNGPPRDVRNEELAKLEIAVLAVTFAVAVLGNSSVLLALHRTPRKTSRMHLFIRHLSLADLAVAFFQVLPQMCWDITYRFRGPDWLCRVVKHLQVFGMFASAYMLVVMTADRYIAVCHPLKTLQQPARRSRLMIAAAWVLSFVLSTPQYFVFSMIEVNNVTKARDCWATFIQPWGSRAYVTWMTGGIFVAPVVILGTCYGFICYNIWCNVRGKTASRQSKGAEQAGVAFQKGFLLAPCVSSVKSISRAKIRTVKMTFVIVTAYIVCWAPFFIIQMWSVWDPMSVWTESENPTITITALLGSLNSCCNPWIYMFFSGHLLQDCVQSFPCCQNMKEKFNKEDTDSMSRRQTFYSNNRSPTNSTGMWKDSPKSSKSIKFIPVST
The target in experiment [5] is Lytic switch protein BZLF1 (Epstein-Barr virus (strain B95-8) (HHV-4) (Human herpesvirus 4), UniProt P03206). In words: EBV ZTA inhibitors, dose response, counter-screen for EBNA-1 inhibitor project, biochemical, fluorescence polarization, Epstein-Barr virus, 1536-well (AID 2377).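 Further: fluorescence polarization of Cy5-labelled ZRE DNA probe bound by purified Zta.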 Details: species or system human gammaherpesvirus 4. Background: Counterscreens check selectivity or assay interference.
Chain of Lytic switch protein BZLF1 (P03206 whole entry): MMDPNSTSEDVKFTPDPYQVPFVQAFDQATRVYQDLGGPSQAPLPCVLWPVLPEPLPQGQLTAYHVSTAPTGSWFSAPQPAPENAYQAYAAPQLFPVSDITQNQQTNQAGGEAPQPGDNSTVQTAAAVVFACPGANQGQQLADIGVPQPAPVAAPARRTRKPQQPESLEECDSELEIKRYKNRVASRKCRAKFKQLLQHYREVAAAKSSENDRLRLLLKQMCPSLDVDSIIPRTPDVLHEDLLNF

Experiment [6] addresses Epstein-Barr nuclear antigen 1 (Epstein-Barr virus (strain B95-8) (HHV-4) (Human herpesvirus 4), UniProt P03211). Put plainly: EBNA-1 inhibitors, dose response, biochemical, fluorescence polarization, 1536-well (AID 2381).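 Further: fluorescence polarization of a Cy5 DNA probe bound by EBNA-1 protein.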 Details: species or system human gammaherpesvirus 4. Background: Polarisation of emitted light reports the rotation of a fluorescent probe.
Experiment [7] is described as follows: cytotoxicity in HEK-293T cells, dose response, cytotoxicity control for BCR NF-kB inhibitor project, luminescence, B-cell screen hits (AID 489021).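 Further: HEK-293T cells carrying an NF-kB luciferase reporter; cells exposed to compound for about 14 hours before viability readout.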 The experiment is classed as functional, cell-based.
Experiment [8] can be described thus: cytotoxicity in MIN6 insulinoma cells, dose response, cytotoxicity control, cell-based, mouse insulinoma (AID 2122).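 Further: confirmatory high-throughput counterscreen run to flag cytotoxic compounds; mouse MIN-6 beta cells carrying an insulin promoter eGFP reporter.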 It counts as functional.
Experiment [9] concerns Vero. Put plainly: cells. The experiment is classed as functional, cell-based. As to conditions: Chlorocebus sabaeus.
Experiment [10] is described as follows: MC4R antagonists, dose response, counter-screen for LGR2 antagonist project, cell-based, plate reader, cherry pick (AID 743444).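 Further: transfected HEK 293 cells stimulated with alpha-MSH peptide; potency of inhibitors of the alpha-MSH evoked signal.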 The experiment is classed as functional.
The target in experiment [11] is Sphingosine 1-phosphate receptor 1 (Homo sapiens, UniProt P21453). It counts as functional.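 Further: Tango beta-arrestin reporter U2OS cells stimulated with S1P near its EC80; inhibitor potency meaning antagonism of receptor activation by the natural agonist.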
Chain of Sphingosine 1-phosphate receptor 1 (P21453 whole entry): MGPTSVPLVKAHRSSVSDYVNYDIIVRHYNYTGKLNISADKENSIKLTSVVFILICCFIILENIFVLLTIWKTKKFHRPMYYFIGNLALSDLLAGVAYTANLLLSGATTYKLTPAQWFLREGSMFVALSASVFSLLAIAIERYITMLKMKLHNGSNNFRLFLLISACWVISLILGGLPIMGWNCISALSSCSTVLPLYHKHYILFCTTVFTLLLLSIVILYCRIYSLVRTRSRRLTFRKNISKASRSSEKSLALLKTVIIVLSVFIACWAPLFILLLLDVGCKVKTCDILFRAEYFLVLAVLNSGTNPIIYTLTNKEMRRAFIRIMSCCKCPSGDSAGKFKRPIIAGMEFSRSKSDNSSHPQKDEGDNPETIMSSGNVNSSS
The nature of experiment [12]: HepG2 cell cytotoxicity, dose response, cytotoxicity control, plate reader, cherry-pick, antagonist series (AID 743416). The experiment is classed as functional, cell-based.
Experiment [13] can be described thus: inhibitors of intracellular T. cruzi replication, confirmation, NIH3T3 host cells, beta-gal luminescence (AID 2044).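 Further: intracellular parasites grown in NIH/3T3 mouse fibroblasts as host cells; luminescent beta-galactosidase reporter signal from transgenic T. cruzi replicating inside host cells; inhibitors lower the luminescence signal.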 The experiment is classed as functional, cell-based.
A short description of experiment [14]: LGR2 antagonists, dose response, cell-based, HEK293, CRE-luciferase reporter, cherry pick, set 2 (AID 743343).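 Further: transfected cells were stimulated with diluted bursicon conditioned medium after compound addition.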 It counts as functional. For orientation: Reporter assays use an easily measured gene product as a stand-in for the process of interest.
Experiment [15] can be described thus: cytotoxicity toward NIH3T3 fibroblasts, dose response, counter-screen, cell-based, ATP luminescence, mouse fibroblasts (AID 2010).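 Further: cells exposed to compound for about 90 hours before reading.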 The experiment is classed as functional.
Experiment [16] can be described thus: A549 cell cytotoxicity, dose response, cytotoxicity control, plate reader, cherry-pick, antagonist series (AID 743412). The experiment is classed as functional, cell-based.
Experiment [17] in a line: insulin promoter down-regulators in MIN6 cells, imaging, high-content screening, mouse beta cells (AID 1628). It counts as functional.
The subject of experiment [18] is Vero. Put plainly: cells. The experiment is classed as functional. The note with it: Chlorocebus sabaeus.
Experiment [19] concerns the target T1, Microphthalmia-associated transcription factor (Homo sapiens, UniProt O75030).
T1 sequence (O75030 whole entry): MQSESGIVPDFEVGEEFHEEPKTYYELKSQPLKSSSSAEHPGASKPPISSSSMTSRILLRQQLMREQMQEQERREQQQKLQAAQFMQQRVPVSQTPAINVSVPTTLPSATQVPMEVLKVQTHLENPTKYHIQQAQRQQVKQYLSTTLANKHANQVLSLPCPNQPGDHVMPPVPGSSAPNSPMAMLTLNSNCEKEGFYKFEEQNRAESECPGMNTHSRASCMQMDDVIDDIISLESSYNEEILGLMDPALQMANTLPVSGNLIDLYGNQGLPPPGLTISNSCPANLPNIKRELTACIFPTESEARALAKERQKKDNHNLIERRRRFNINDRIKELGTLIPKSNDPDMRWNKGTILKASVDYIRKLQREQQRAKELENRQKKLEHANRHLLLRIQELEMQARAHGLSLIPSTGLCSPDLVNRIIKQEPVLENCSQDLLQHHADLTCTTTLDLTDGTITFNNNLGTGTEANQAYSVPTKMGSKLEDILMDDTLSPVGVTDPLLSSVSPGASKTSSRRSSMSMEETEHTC
In words: TRPM1 promoter luciferase signal decrease, dose response, MITF inhibitor project, cell-based, SK-MEL-5, cherry-picked, set 3 (AID 493073).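 Further: SK-MEL-5 melanoma cells with luciferase driven by the MITF target TRPM1 promoter.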 The experiment is classed as functional.

A short description of experiment [20]: HEK293 cell cytotoxicity, dose response, cytotoxicity control, plate reader, cherry-picked samples (AID 743446). The experiment is classed as functional, cell-based.
The target in experiment [21] is T2, Sphingosine 1-phosphate receptor 4 (Homo sapiens, UniProt O95977).
T2 sequence (O95977 whole entry): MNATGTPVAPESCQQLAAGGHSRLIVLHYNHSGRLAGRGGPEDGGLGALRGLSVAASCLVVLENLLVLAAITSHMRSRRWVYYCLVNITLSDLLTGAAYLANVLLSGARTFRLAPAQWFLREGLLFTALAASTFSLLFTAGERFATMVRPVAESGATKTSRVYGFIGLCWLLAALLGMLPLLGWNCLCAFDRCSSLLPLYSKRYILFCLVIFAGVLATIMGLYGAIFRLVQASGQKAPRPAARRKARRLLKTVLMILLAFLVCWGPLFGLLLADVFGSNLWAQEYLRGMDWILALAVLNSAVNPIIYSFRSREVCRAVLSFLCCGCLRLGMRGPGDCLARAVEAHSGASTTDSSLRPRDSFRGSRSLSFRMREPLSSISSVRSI
In words: Fluorescence dose response cell-based high throughput screening assay for antagonists of the Sphingosine 1-Phosphate Receptor 4 (S1P4). [Related pubchem assays: 1524 (Confirmation in triplicates.), 1510 (Primary screen.)]. The experiment is classed as functional.

Experiment [22] in a line: inhibitors of Bluetongue virus cytopathic effect, confirmation, arbovirus, BSR cells (AID 1250).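 Further: protection from viral cytopathic effect measured as cell viability by ATP luminescence.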 The experiment is classed as functional.
The target of experiment [23] is NS3 (Hepatitis C virus, UniProt A3EZJ3). In words: PubChem AID 2173. More on the design: species or system Hepacivirus hominis.
Chain of NS3 (A3EZJ3 whole entry): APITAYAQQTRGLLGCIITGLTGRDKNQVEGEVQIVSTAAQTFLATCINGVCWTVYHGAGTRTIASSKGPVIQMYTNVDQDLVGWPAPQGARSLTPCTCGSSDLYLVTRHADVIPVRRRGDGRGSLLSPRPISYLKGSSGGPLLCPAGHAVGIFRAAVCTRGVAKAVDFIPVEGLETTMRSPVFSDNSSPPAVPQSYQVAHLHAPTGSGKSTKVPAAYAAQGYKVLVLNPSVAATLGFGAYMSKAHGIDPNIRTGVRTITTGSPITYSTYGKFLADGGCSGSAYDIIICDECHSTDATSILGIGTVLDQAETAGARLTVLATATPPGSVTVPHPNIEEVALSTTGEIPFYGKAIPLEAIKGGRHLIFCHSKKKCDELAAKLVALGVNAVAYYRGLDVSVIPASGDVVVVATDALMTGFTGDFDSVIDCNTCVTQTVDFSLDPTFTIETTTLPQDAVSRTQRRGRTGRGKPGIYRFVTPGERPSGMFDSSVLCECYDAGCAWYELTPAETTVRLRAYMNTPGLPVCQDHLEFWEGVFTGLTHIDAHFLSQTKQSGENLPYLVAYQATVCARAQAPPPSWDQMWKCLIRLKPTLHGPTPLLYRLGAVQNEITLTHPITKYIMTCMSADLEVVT
The nature of experiment [24]: half-maximal inhibitory concentration for glucagon-like peptide-1 release, STC-1 cell line, dose-response (AID 1117345). It counts as functional, cell-based.
Experiment [25] addresses Serine/threonine-protein phosphatase (Homo sapiens, UniProt Q9BPW0). Put plainly: Counterscreen for inhibitors of PP1: fluorescence-based biochemical high throughput dose response assay to identify inhibitors of Protein Phosphatase 5 (PP5). [Related pubchem assays: 2034 (Summary (PP5 inhibitors)), 1987 (PP5 inhibitors in singlate), 2235 (PP1 inhibitors in singlate)].
Experiment [26] is described as follows: HeLa 4N DNA content increase, dose response, cell-based, IC50 (AID 1117351). It counts as functional.
Experiment [27] in a line: HeLa 2N DNA content increase, dose response, cell-based, IC50 (AID 1117349). It counts as functional.
Experiment [28] can be described thus: Glucagon-like peptide 1 release potency, NCI-H716 cell line, dose-response, half-maximal inhibitory concentration (AID 1117344). It counts as functional, cell-based.

The source made the active and inactive calls.

As a reminder, the IC50 is the concentration that gives 50% inhibition. By CC50 is commonly meant the concentration that lowers cell viability or growth by half. The EC50 is the concentration giving half of the maximal effect. In general, AC50 refers to the midpoint of the concentration-response curve, whichever way the signal moves.

Chain of Serine/threonine-protein phosphatase (Q9BPW0 whole entry): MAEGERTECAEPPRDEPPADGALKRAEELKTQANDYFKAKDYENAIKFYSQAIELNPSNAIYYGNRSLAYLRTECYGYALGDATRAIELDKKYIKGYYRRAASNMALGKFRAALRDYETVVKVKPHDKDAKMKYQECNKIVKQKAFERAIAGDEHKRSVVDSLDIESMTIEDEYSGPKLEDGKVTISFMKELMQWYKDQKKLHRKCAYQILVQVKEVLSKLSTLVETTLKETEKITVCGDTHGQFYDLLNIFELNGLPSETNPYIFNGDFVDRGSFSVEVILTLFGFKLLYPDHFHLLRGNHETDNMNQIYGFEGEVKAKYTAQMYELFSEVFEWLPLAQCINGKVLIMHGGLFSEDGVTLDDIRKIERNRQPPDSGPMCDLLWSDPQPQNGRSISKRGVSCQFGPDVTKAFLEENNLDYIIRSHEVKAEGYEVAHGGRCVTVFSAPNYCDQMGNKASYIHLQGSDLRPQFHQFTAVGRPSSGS
Chain of Mothers against decapentaplegic homolog 3 (P84022 whole entry): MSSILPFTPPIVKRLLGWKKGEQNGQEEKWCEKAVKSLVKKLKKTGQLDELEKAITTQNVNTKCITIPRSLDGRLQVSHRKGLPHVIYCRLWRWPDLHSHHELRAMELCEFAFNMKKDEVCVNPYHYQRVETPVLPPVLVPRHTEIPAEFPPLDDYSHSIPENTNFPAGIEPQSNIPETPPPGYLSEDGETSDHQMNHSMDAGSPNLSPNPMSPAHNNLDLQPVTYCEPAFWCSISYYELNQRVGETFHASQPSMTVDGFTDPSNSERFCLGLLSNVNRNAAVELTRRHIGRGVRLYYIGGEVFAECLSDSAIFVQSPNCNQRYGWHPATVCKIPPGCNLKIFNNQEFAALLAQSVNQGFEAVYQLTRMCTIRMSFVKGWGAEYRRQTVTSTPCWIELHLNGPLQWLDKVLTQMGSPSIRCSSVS
Chain of Epstein-Barr nuclear antigen 1 (P03211 whole entry): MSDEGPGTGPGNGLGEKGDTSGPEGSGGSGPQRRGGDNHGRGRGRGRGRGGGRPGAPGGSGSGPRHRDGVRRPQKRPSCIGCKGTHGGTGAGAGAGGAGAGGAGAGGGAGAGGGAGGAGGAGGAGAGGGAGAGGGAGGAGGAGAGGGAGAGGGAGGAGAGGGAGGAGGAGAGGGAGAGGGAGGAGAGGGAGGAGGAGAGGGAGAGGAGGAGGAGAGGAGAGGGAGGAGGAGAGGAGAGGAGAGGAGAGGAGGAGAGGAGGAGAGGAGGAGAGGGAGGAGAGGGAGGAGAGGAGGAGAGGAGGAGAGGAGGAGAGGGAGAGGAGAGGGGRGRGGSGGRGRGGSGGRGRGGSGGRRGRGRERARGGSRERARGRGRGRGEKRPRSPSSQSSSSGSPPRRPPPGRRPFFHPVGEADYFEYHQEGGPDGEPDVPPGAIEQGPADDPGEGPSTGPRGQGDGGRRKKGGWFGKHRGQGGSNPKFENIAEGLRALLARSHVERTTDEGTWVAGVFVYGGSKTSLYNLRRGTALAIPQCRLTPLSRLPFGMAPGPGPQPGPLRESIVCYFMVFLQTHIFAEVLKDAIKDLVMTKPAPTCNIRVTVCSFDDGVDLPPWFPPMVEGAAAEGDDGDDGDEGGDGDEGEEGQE

With `Cc1cccc(CSc2nc3c(cc2C#N)CCC3)c1`, in experiment [1], the IC50 was 18.5 µM (active).

For the molecule `N#Cc1ccc(NC(=O)c2nc(-c3ccccc3)n(-c3ccccc3)n2)cc1`, in [2], the CC50 was > 99 µM (not active).

Regarding `CC(NC(=O)Nc1ccc([N+](=O)[O-])cc1)C(c1ccccc1)N1CCOCC1` (stereo not drawn), the results for the EC50 in experiment [3] and in experiment [4] were > 29.9 µM (not active) and 4.67 µM (active), respectively.

In the case of `COc1ccc(C(=O)Nc2nnc(Cc3cccs3)s2)cc1OC`, the IC50 is > 111 µM (not active) in [5], 41.5 µM (not active) in [6] and > 80 µM (inactive) in experiment [7].

Regarding `O=C(Cn1ncc(Cl)c(Cl)c1=O)N1CCN(Cc2ccccc2)CC1`, the IC50 was 2.16 µM (active) in [8]; > 25 µM (active) in experiment [9]; 9.93 µM (active) in [11]; 3.08 µM (active) in experiment [17]; 3.5 µM (active) in [21]. Moreover, the AC50 in [10] is 34.1 µM (active); in [12], 17.8 µM (active); in experiment [14] it was 31.5 µM (active); in experiment [16] it was 11.1 µM (active); in [19] it was 10.9 µM (active); in experiment [20] it was 7.54 µM (active). Further, the EC50 in experiment [13] is 2.22 µM (active); in [15], 2.06 µM (active). Also, in experiment [18], the CC50 is 11.3 µM (active).

Regarding `O=C(Nc1nnc(SCc2ccc(Cl)cc2Cl)s1)C1COc2ccccc2O1` (stereo not drawn), the IC50 in experiment [22] was 49 µM (active).

Take `COc1ccc(C2C(C(=O)c3ccc4c(c3)OCCO4)=C(O)C(=O)N2c2nc(C)c(C(C)=O)s2)cc1` (stereo not drawn): in experiment [23], the IC50 was 5.13 µM (active).

As to `C[C@@]12C(=O)OC(=O)[C@]1(C)C1CCC2O1`, the IC50 is 13.7 µM (inactive) in experiment [24]; 0.239 µM (active) in experiment [25]; > 10 µM (inactive) in experiment [26]; > 10 µM (inactive) in experiment [27]; 6.68 µM (inactive) in [28].

The values are drawn from ChEMBL document CHEMBL1201862, “PubChem BioAssay data set” (2004).
